# Data: article PMC7516017, “Organoids to Study Intestinal Nutrient Transport, Drug Uptake and Metabolism – Update to the Human Model and Expansion of Applications” (Frontiers in Bioengineering and Biotechnology, 2020)
# Experiments:
# human duodenal organoids = test: Live-cell imaging of intracellular calcium (Fura-2-AM); assay type: cell-based; details: Fura-2-AM 7μM, ratio F(λex340nm)/F(λex380nm), 100µM ATP
# Experimental: (§1) 1.9. Imaging of intracellular calcium concentrations
# (§2) Concentrations of substances used were: 100µM ATP (Sigma), 50mM glucose, and 50mM fructose. Using a Leica DMI6000 B inverted […]
# (§3) analyzed using the Leica Application Suite Advanced Fluorescence software. Imaging of intracellular calcium concentrations was performed in human duodenal organoids.
# (§4) Of note, the B27 supplement contains a n/a […]
# (§5) incubated for the indicated times. Controls were not pulsed with insulin. 2. Addition of butyrate: murine colonic organoids were grown for 6 days in IC. 100µM carnitine and 1mM butyrate were added and organoids were incubated for the indicated times. Time point zero was sampled immediately after addition of butyrate and carnitine. Control organoids were not exposed to butyrate. 3. Addition of d13- […]
# (§6) organoids were incubated for the indicated times. Controls were exposed to carnitine and BSA without […]
# (§7) 5min) to remove remaining matrigel.
# (§8) Comfort; Eppendorf, Hamburg, Germany). The samples were dried in nitrogen gas and reconstituted […]
# (§9) To determine amino acid and
# (§10) Analytics, Zwingen, Switzerland) was used. Data analysis was performed using Analyst 1.7® and SCIEX OS 1.4 software (Sciex).
# [1] = tested on: murine large intestinal organoids; test: Acylcarnitine profiles after butyrate (LC-MS/MS); assay type: cell-based, mouse; details: 1mM butyrate with 100µM carnitine, measured 0, 5, 10, 30, 60 min
# Experimental: as §1, §2, §3, §4, §5, §6, §7, §8, §9, §10
# [2] = tested on: murine small intestinal organoids; test: Amino acid and acylcarnitine levels after insulin (LC-MS/MS); assay type: cell-based, mouse; details: 1 μM insulin, measured after 0, 30, 60, 120 min
# Experimental: For live-cell imaging of intracellular calcium concentrations, organoids were loaded with 7μM Fura-2
# AM (Life Technologies) in HEPES-saline buffer as used for imaging of intracellular acidification for
# 20 min at 37 °C and then washed 5 times with PBS (pH 7.4; 37 °C). Concentrations of substances used were: 100µM ATP (Sigma), 50mM glucose, and 50mM fructose. Using a Leica DMI6000 B inverted
# fluorescence microscope (Leica Microsystems) at 20× magnification, images were captured every 5-
# 10s. The fluorescence ratio F(λex340nm)/ F(λex380nm) was calculated and imaging data were
# Quantification of amino acid and acylcarnitine concentrations using targeted LC-MS/MS
# Metabolite analyses were performed with samples from three different experiments: 1.
# incubated for the indicated times. […] Addition of butyrate: murine colonic organoids were grown for 6 days in IC. 100µM carnitine and 1mM butyrate were added and organoids were incubated for the indicated times. […]
# palmitate. Medium from untreated organoids was measured to verify organoids as source of […]
# acylcarnitine concentrations, quantitative LC -MS/MS was applied as described previously [6, 7]. […]
compound,measurement,setting,value
Nc1ncnc2c1ncn2[C@@H]1O[C@H](COP(=O)(O)OP(=O)(O)OP(=O)(O)O)[C@@H](O)[C@H]1O [ATP],intracellular calcium response,human duodenal organoids,increases in intracellular calcium
CCCC(=O)O [butyrate],"acetylcarnitine, butyrylcarnitine and palmitoylcarnitine concentrations",[1],increasing to maximal concentrations 60 min after butyrate addition
insulin,tau-methylhistidine and propionylcarnitine (C3) after insulin stimulation,[2],diminished with lowest levels observed 60 min after insulin stimulation
